Results reported in US12390423B2 (priority 2019, dated 2025).

System: pAkt-Ser473 and CPT-1A
Assay: Immunoblotting of gastrocnemius muscle lysates of DIO mice
Assay type: in vivo, C57BL/6J mice
Experimental: For all cell culture experiments, after drug treatments cells were washed with chilled phosphate-buffered saline (PBS), and lysed in chilled lysis buffer with 1× protease inhibitor cocktail (Sigma). RIPA lysis buffer (Sigma-Aldrich) was used for INS-1 (832/13) cells and muscle lysis buffer for C2C12 myotubes (20 mM HEPES, 10 mM NaCl, 1.5 mM MgCl2, 1 mM DTT, 20% glycerol, and 0.1% Triton-X100). Cells were scraped, mechanically homogenized using a syringe and centrifuged at 14,000×g for 20 min at 4° C. and the supernatants were collected. For preparation of all gastrocnemius muscle lysates, 10 mg frozen tissue (wet weight) was washed in chilled PBS, placed in a dounce homogenizer, lysed in muscle lysis buffer and centrifuged at 14,000×g for 20 min at 4° C. and the supernatant was collected. Protein content for cell and tissue lysates was measured using the BCA protein assay kit (ThermoFisher) according to manufacturer's protocol. Thirty μg protein lysates were prepared in loading buffer and immunoblotting was performed by heating lysates for 5 minutes at 95° C. and subjecting them to gel electrophoresis on 10% SDS-polyacrylamide gels at 150 V for 75 minutes. Using a semi-dry transfer apparatus (Bio-Rad) the gels were then transferred at 25V for 45 minutes to a PVDF membrane and blocked with 5% BSA (Sigma) in tris-buffered saline-tween (TBS-T) for 1 hour. […]

With avocatin B [AvoB] the “Phosphorylation of AKT Ser473 in gastrocnemius muscle” value (AvoB-treated-HFD mice vs HFD-control mice) was “increased phosphorylation of AKTSer473” and the “CPT-1A protein level in gastrocnemius muscle” value (HFD-control mice compared to AVO-treated-HFD mice) was “higher protein levels of CPT-1A in gastrocnemius muscle compared to AVO-treated-HFD mice”.
